From patent publication US11678682B2, “Phosphor composition having selected surface coatings” (IMMUNOLIGHT, LLC, priority 2013, dated 2023)
Read-outs that look alike come from different tables or passages of the source.

Legend:
B16 cancer cells = experiment: Clonogenic cell kill (surviving colonies) with x-ray stimulated phosphor mixtures with and without psoralen (AMT); assay type: cell-based
Description: Accordingly, combinations of more than two “visible” phosphors can be used in this invention. Discussed below are x-ray settings and mass ratios for clonogenic cell kill experiments. F1 refers to the insertion of an aluminum filter into the x-ray beam to act as a filter.
Psoralen is known to be activated by UV light in the range from 300 to 400 nm. Thus, a measure of cell kill would normally be assumed to be an indirect measure of the internal generation of UV light.
FIGS. 18A and 18B is a plotted cell kill comparison (shown here as the number of surviving colonies) between B16 cancer cells treated with and without psoralen (i.e., AMT) with different phosphor mixtures, but otherwise being x-ray stimulated and containing the multiple phosphor combinations noted above. On these drawings, LDLE=low xRT dose, low energy; HDHE=high xRT dose, high energy.

cells = cells kept in the dark compared to those exposed to light; cited from earlier work
[1] = test system: human bladder cancer cells; conditions: cited from earlier work
[2] = test system: cisplatin-resistant cells; conditions: photolyzed complex; cited from earlier work

## O=c1ccc2cc3ccoc3cc2o1 [psoralen]
B16 cancer cells; B16 cells, x-ray stimulated RYG/FYG phosphor mixtures
  cell kill (number of surviving colonies), with versus without psoralen (FIGS. 18A and 18B): improved cell kill
B16 cancer cells; flamingo, yellow, green FYG phosphor combination
  clonogenic colony survival, with versus without psoralen (FIG. 19C): pronounced cell kill
B16 cancer cells; higher kVp x-ray conditions
  cell kill, with versus without psoralen (FIGS. 19A and 19B): does not show an increased kill

## NCCN.[Cl][Pt]([Cl])([I])[I] [[PtCl2I2(en)]]
cells
  cytotoxicity, dark versus light: no difference in cytotoxicity

## Cis,trans,cis-[Pt(N3)2(OH)2(NH3)2]
[1]; cells treated with the complex and kept in the dark
  growth inhibition: very little growth inhibition
[1]; photolyzed complex
  growth inhibition: inhibits the growth
[2]
  growth inhibition: inhibits the growth
